Laboratory results as given in ChEMBL document CHEMBL1155464, “Potent tricyclic pyrazole tetrazole agonists of the nicotinic acid receptor (GPR109a)” (Bioorg Med Chem Lett, 2010).
The source made the active and inactive calls. The rule behind the calls is not given here.

Experiments:
[1] = target: Hydroxycarboxylic acid receptor 3 (Homo sapiens) (UniProt P49019); assay: Agonist activity at GPR109b; assay type: functional
[2] = Antidyslipidemic activity in human adipocytes assessed as inhibition of isoproteranol-induced production of free fatty acids; details: Adipocyte
[3] = system: Mus musculus; assay: Antidyslipidemic activity in po dosed mouse assessed as reduction of plasma free fatty acids; assay type: functional
[4] = target: Hydroxycarboxylic acid receptor 3 (Homo sapiens) (UniProt P49019); assay: Agonist activity at GPR109b at 5 to 10 uM; assay type: functional
[5] = Plasma clearance in mouse at 3 mg/kg, iv and 10 mg/kg, po; assay type: ADME, organism-based
[6] = Oral bioavailability in rat at 10 mg/kg; assay type: ADME, organism-based; details: in vivo
[7] = Plasma clearance in rat at 3 mg/kg, iv and 10 mg/kg, po; assay type: ADME, organism-based
[8] = Oral bioavailability in mouse at 10 mg/kg; assay type: ADME, organism-based; details: in vivo
[9] = Cmax in monkey at 3 mg/kg, iv and 10 mg/kg, po; assay type: ADME, organism-based, Macaca mulatta; details: rhesus monkey, in vivo
[10] = Half life in mouse at 3 mg/kg, iv and 10 mg/kg, po; assay type: ADME, organism-based; details: in vivo
[11] = Cmax in mouse at 3 mg/kg, iv and 10 mg/kg, po; assay type: ADME, organism-based; details: in vivo
[12] = Cmax in dog at 3 mg/kg, iv and 10 mg/kg, po; assay type: ADME, organism-based, Canis lupus familiaris; details: in vivo
[13] = Half life in rat at 3 mg/kg, iv and 10 mg/kg, po; assay type: ADME, organism-based; details: in vivo
[14] = Plasma clearance in monkey at 3 mg/kg, iv and 10 mg/kg, po; assay type: ADME, organism-based, Macaca mulatta; details: rhesus monkey
[15] = Half life in dog at 3 mg/kg, iv and 10 mg/kg, po; assay type: ADME, organism-based, Canis lupus familiaris; details: in vivo
[16] = Volume of distribution at steady state in monkey at 3 mg/kg, iv and 10 mg/kg, po; assay type: ADME, organism-based, Macaca mulatta; details: rhesus monkey, in vivo, read-out: Vdss
[17] = Oral bioavailability in monkey at 10 mg/kg; assay type: ADME, organism-based, Macaca mulatta; details: rhesus monkey, in vivo
[18] = Volume of distribution at steady state in rat at 3 mg/kg, iv and 10 mg/kg, po; assay type: ADME, organism-based; details: in vivo, read-out: Vdss
[19] = Plasma clearance in dog at 3 mg/kg, iv and 10 mg/kg, po; assay type: ADME, organism-based, Canis lupus familiaris
[20] = Oral bioavailability in dog at 10 mg/kg; assay type: ADME, organism-based, Canis lupus familiaris; details: in vivo
[21] = Volume of distribution at steady state in mouse at 3 mg/kg, iv and 10 mg/kg, po; assay type: ADME, organism-based; details: in vivo, read-out: Vdss
[22] = Cmax in rat at 3 mg/kg, iv and 10 mg/kg, po; assay type: ADME, organism-based; details: in vivo
[23] = Half life in monkey at 3 mg/kg, iv and 10 mg/kg, po; assay type: ADME, organism-based, Macaca mulatta; details: rhesus monkey, in vivo
[24] = Volume of distribution at steady state in dog at 3 mg/kg, iv and 10 mg/kg, po; assay type: ADME, organism-based, Canis lupus familiaris; details: in vivo, read-out: Vdss
[25] = organism: Mus musculus; assay: Inhibition of prostaglandin-induced vasodilation in mouse; assay type: functional, organism-based
[26] = organism: Mus musculus; assay: Inhibition of niacin-induced vasodilation in mouse; assay type: functional, organism-based
[27] = system: Mus musculus; assay: Induction of vasodilation in mouse assessed as laser doppler changes in ears at 100 mg/kg; assay type: functional, organism-based; design: dose 100 mg/kg

Hydroxycarboxylic acid receptor 3 (Homo sapiens), sequence (P49019 whole entry): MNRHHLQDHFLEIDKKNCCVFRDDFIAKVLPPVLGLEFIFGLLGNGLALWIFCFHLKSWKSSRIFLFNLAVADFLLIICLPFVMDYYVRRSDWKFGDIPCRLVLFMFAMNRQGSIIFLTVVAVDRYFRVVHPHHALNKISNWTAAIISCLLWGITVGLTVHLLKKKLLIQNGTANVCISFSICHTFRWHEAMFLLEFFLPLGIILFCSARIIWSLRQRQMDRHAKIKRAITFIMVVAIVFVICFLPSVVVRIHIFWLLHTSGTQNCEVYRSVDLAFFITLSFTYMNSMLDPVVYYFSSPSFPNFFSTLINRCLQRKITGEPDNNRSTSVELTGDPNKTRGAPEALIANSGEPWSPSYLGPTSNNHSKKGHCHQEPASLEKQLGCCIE

SMILES: CC(C)CC[C@@H]1C2Cc3c(-c4nnn[nH]4)n[nH]c3[C@H]21 (stereo not given in full)
- Activity [1]: inactive

SMILES: C1c2c(-c3nnn[nH]3)n[nH]c2C2CC12 (racemic)
- Activity [1]: inactive

SMILES: C=CC[C@H]1[C@H]2Cc3c(-c4nnn[nH]4)n[nH]c3[C@H]21
- Activity [1]: inactive

SMILES: C1Cc2[nH]nc(-c3nn[nH]n3)c2C1
- IC50 [2]: 870 nM
- Activity [1]: inactive
- ED50 [3]: 3.1 mg/kg

SMILES: CC(C)C[C@H]1C2Cc3c(-c4nnn[nH]4)n[nH]c3[C@H]21 (stereo not given in full)
- Activity [1]: inactive

SMILES: CCCCC[C@H]1[C@H]2Cc3c(-c4nnn[nH]4)n[nH]c3[C@H]21
- Activity [1]: inactive

SMILES: CC1(C)[C@@H]2c3[nH]nc(-c4nnn[nH]4)c3C[C@@H]21
- Activity [1]: inactive

SMILES: CCCC[C@@H]1[C@H]2Cc3c(-c4nnn[nH]4)n[nH]c3[C@@H]12
- Activity [4]: Active
- Activity [1]: inactive

SMILES: C=CC[C@@H]1[C@H]2Cc3c(-c4nnn[nH]4)n[nH]c3[C@@H]12
- Activity [1]: inactive

SMILES: C[C@H]1[C@H]2Cc3c(-c4nnn[nH]4)n[nH]c3[C@@H]12
- Activity [1]: inactive

SMILES: CC(C)C[C@@H]1[C@H]2Cc3c(-c4nnn[nH]4)n[nH]c3[C@H]21
- Activity [4]: Active
- Activity [1]: inactive

SMILES: C1c2c(-c3nnn[nH]3)n[nH]c2[C@H]2C[C@@H]12 (stereo in doubt; (+)17a) [3-(1H-TETRAZOL-5-YL)-4,4A,5,5A-TETRAHYDRO-1H-CYCLOPROPA[4,5]CYCLOPENTA[1,2-C]PYRAZOLE (STRUCTURAL MIX)]
- clearance [5]: 61.6 mL/min/kg
- bioavailability [6]: 37%
- IC50 [2]: 90 nM
- clearance [7]: 25.5 mL/min/kg
- bioavailability [8]: 97%
- Cmax [9]: 11.7 µM
- half-life [10]: 2.4 h
- Cmax [11]: 2 µM
- Cmax [12]: 36.9 µM
- half-life [13]: 1.9 h
- clearance [14]: 13.9 mL/min/kg
- half-life [15]: 1.9 h
- Vd [16]: 0.96 L/kg
- bioavailability [17]: > 100%
- Vd [18]: 0.34 L/kg
- clearance [19]: 12.4 mL/min/kg
- bioavailability [20]: > 100%
- Vd [21]: 3.4 L/kg
- Cmax [22]: 4.9 µM
- ED50 [3]: 0.52 mg/kg
- half-life [23]: 7.3 h
- Vd [24]: 0.53 L/kg

SMILES: COC[C@@H]1[C@H]2Cc3c(-c4nnn[nH]4)n[nH]c3[C@@H]12
- Activity [1]: inactive

SMILES: C1c2c(-c3nnn[nH]3)n[nH]c2[C@H]2C[C@@H]12 (stereo in doubt; (+)17a)
- Activity [25]: inactive
- Activity [26]: Active
- Activity [1]: inactive
- Activity [27]: inactive

SMILES: O=C(O)c1cccnc1 [NIACIN]
- IC50 [2]: 60 nM
- Activity [1]: inactive

SMILES: C[C@@H]1[C@H]2Cc3c(-c4nnn[nH]4)n[nH]c3[C@@H]12
- Activity [1]: inactive

SMILES: C1c2c(-c3nnn[nH]3)n[nH]c2[C@H]2C[C@@H]12 (stereo in doubt; (-)17a)
- Activity [1]: inactive

SMILES: CC[C@@H]1[C@H]2Cc3c(-c4nnn[nH]4)n[nH]c3[C@@H]12
- Activity [1]: inactive

SMILES: C=C[C@@H]1[C@H]2Cc3c(-c4nnn[nH]4)n[nH]c3[C@@H]12
- Activity [1]: inactive

SMILES: C1CC1[C@@H]1[C@H]2Cc3c(-c4nnn[nH]4)n[nH]c3[C@H]21
- Activity [1]: inactive

SMILES: C=C[C@H]1[C@H]2Cc3c(-c4nnn[nH]4)n[nH]c3[C@@H]12
- Activity [1]: inactive

SMILES: C1CCC2(C1)[C@@H]1c3[nH]nc(-c4nnn[nH]4)c3C[C@@H]12
- Activity [1]: inactive

SMILES: CCC[C@@H]1[C@H]2Cc3c(-c4nnn[nH]4)n[nH]c3[C@@H]12
- Activity [4]: Active
- Activity [1]: inactive

SMILES: C/C=C/[C@@H]1[C@H]2Cc3c(-c4nnn[nH]4)n[nH]c3[C@@H]12
- Activity [1]: inactive

SMILES: CCCCC[C@@H]1[C@H]2Cc3c(-c4nnn[nH]4)n[nH]c3[C@@H]12
- Activity [1]: inactive
